Assay results taken from US8242078B2, “Therapeutics to inhibit MLL-menin interaction for treating leukemia” (The University of Chicago, priority 2006, dated 2012).
“Also recorded” adds a separate entry of the source.

Legend:
[1] = test system: Leukemia cell lines; test: Relative growth inhibition of TAT-MLL vs TAT-MLL mutant (MTS cell proliferation assay); format: cell-based
[2] = target: T1, interaction of transfected MLL with endogenous menin (Homo sapiens, UniProt O00255); test: Disruption of binding of transfected FLAG-tagged MLL 1-330 to endogenous menin (anti-FLAG immunoprecipitation, anti-menin Western blot); details: each peptide tested at 10, 20, and 30 μM
T1 construct: endogenous in cells; host or cells: 293 cells (lysate; cells transfected with FLAG-MLL 1-330)
T1 sequence (O00255 1-610): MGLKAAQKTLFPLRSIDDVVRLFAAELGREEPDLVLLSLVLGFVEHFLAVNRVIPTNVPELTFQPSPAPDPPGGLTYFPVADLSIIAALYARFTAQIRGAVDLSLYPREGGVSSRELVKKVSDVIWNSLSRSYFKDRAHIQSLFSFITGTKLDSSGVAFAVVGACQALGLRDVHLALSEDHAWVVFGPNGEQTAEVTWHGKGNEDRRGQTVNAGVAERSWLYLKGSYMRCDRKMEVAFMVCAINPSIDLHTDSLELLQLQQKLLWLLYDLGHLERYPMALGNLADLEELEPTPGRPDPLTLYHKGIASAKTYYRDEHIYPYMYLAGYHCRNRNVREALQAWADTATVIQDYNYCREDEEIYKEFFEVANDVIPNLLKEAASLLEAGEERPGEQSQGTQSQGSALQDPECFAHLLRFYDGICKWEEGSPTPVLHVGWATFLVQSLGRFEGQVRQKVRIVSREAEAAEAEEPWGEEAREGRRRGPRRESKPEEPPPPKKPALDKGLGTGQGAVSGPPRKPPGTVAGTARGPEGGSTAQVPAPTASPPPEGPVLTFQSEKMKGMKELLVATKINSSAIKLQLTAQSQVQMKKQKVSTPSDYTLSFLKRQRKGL
Protocol: To determine the precise domain that mediates the binding of MLL to menin, a series of peptides from the N-terminus of MLL were synthesized. To assess disruption of binding of transfected MLL to endogenous menin, a FLAG-tagged MLL 1-330 construct was transfected into 293 cells and the cell lysates were incubated with a series of peptides listed below or with water as a control. Cell lysates were immunoprecipitated with anti-FLAG antibody (Sigma), separated by SDS-PAGE and blotted with an anti-menin antibody (Bethyl Laboratories Inc, or Santa-Cruz). The amino acid numbers from the N-terminus of MLL are indicated below (preceding the amino acid sequence) for the peptides analyzed for their ability to disrupt the interaction of MLL and menin.
Conditional inactivation of menin results in the reversal of the transforming properties of MLL fusion proteins. A high affinity menin binding domain has been localized to the N-terminal residues of MLL, and deletion of residues 6 through 10 of MLL prevents MLL-ELL from transforming hematopoietic progenitor cells. To target the MLL-menin interaction, a series of peptides were developed for the potential to block the interaction of menin with MLL. To establish the activity of these peptides, lysates of cells transfected with FLAG-tagged N-terminal MLL sequences were examined. The lysates were immunoprecipitated with a FLAG antibody, incubated with either an MLL peptide or a control scrambled peptide, and then blotted with an anti-menin antibody. […] To examine the activity of the TAT-MLL peptide, mouse and human leukemia cell lines were treated with the TAT-MLL peptide. […] (#TIB-202, American Type Culture Collection, Manassas, Va.).

Question: Which results are given for “RKKRRQRRR-GG-CRWRFGARGG (SEQ ID NO: 16) (RKKRRQRRRGGCRWRFGARGG) [TAT-MLL-G 5-14, TAT-MLL 5-14 peptide with prolines replaced by glycines, used as a control, reference compound]”?
Answer: effect on proliferation, TAT-MLL vs TAT-MLL mutant (FIG. 6) [1]: significantly decreases the effect of the peptide on proliferation; inhibition of the binding of transfected MLL 1-330 to endogenous menin (Western blot, FIG. 2) [2]: did not inhibit the binding of MLL1-330 with menin; also recorded: did not block the interaction of MLL with menin
